Source: the NIST ThermoML archive (doi:10.1016/j.jct.2015.11.021)
± gives the expanded uncertainty stated by the source.

Details: Liquid, Closed cell (Static) method

Structure (SMILES)	vapor or sublimation pressure (303.15 K) [kPa]	vapor or sublimation pressure (323.15 K) [kPa]	vapor or sublimation pressure (343.15 K) [kPa]	vapor or sublimation pressure (363.15 K) [kPa]	vapor or sublimation pressure (373.15 K) [kPa]
FC(F)CC(F)(F)F [1,1,1,3,3-pentafluoropropane]	177.8 ± 1.1	344.7 ± 1.2	610.2 ± 1.5	1006.7 ± 2	1266.2 ± 2.4
CCCC [butane]	283.7 ± 1.1	496.2 ± 1.2	809.8 ± 1.5	1249.8 ± 2.1	1526.8 ± 2.4
